Source: BindingDB's records for doi:10.7270/Q2R49PCF (Burnham Center For Chemical Genomics, 2012)

molecular target: T1, Sentrin-specific protease 1 (Homo sapiens, UniProt Q9P0U3)
T1 sequence (Q9P0U3 whole entry): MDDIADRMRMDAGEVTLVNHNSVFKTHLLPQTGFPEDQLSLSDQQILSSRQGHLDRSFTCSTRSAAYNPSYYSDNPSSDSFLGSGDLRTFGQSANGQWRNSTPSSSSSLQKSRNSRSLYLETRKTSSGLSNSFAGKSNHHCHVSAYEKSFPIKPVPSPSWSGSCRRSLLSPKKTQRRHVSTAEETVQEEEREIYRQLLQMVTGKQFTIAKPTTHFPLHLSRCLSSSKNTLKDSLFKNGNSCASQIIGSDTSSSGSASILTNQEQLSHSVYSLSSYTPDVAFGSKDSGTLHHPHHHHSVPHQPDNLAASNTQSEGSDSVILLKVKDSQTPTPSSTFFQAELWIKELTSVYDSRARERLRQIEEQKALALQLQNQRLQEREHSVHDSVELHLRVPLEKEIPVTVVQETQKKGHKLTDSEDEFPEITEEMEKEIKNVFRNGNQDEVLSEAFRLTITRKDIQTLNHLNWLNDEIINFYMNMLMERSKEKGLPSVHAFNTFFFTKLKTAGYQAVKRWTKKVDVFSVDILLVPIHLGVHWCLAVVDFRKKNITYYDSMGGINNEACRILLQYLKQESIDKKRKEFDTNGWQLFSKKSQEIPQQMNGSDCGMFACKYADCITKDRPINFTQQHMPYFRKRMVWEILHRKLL

Going from `CCOC1=CC(=Cc2sc(=O)[nH]c2N)C=CC1=O` to `CCOc1cc(C=c2[nH]c3n(c2=O)CCCCC=3)ccc1O` [MLS000774439], the IC50 falls from 18.2 µM to 7.67 µM (2.4-fold).

`O=[N+]([O-])c1ccc(C/N=N/c2ccccc2)cc1` and `O=C(O)c1ccc(N=NCc2cccc3nccnc23)cc1` [4-[(2E)-2-(5-quinoxalinylmethylidene)hydrazinyl]benzoic acid] are within 1.5-fold of each other in IC50: 7.2 µM for the first, 8.97 µM for the second.

`COc1ccc(-n2c(O)c3c(c2O)C(C(=O)c2ccc(Cl)cc2)N2CCCC32)cc1` (stereo not drawn) and `CC(=O)Oc1ccc(-n2c(O)c3c(c2O)C(C(=O)c2ccc(Cl)cc2)N2CCCC32)cc1` (stereo not drawn) [Acetic acid 4-[4-(4-chloro-benzoyl)-1,3-dioxo-octahydro-pyrrolo[3,4-a]pyrrolizin-2-yl]-phenyl ester] are within 1.5-fold of each other in IC50: 4.36 µM for the first, 4.65 µM for the second.

`O=C1CC(=Nc2ccc(Cl)cc2)C(=O)N1c1ccc(Cl)cc1` [1-(4-chlorophenyl)-3-[(4-chlorophenyl)amino]pyrrole-2,5-dione] and `O=C1CC(=O)c2cccc3cccc1c23` [3-hydroxy-1H-phenalen-1-one] are within 1.5-fold of each other in IC50: 12.5 µM for the first, 8.55 µM for the second.

Going from `CC1(C)CC(=O)C2Sc3ccccc3N=C2C1` (stereo not drawn) [2,2-Dimethyl-2,3-dihydro-1H,10H-phenothiazin-4-one] to `O=C1CCCC2=Nc3cc(Cl)ccc3SC12` (stereo not drawn) [MLS000333002], the IC50 falls from 42.4 µM to 17.1 µM (2.5-fold). The second is the more potent here.

`O=C(Cc1cccc2ccccc12)NC(NC(=S)Nc1ccccc1Cl)C(Cl)(Cl)Cl` (stereo not drawn) [2-(1-naphthyl)-N-[2,2,2-trichloro-1-({[(2-chlorophenyl)amino]carbonothioyl}amino)ethyl]acetamide] and `CCN1C(=O)c2cccc3c(NC(=O)c4cccc(-n5c(O)ccc5O)c4)ccc1c23` [3-(2,5-dioxopyrrolidin-1-yl)-N-(1-ethyl-2-oxobenzo[cd]indol-6-yl)benzamide] are within 1.5-fold of each other in IC50: 8.71 µM for the first, 11.3 µM for the second.

Going from `COc1ccc(P2(=O)Nc3ccccc3N2)cc1` [2-(4-methoxyphenyl)-1,3-dihydro-1,3,2-benzodiazaphosphole 2-oxide] to `COc1ccc(-n2c(O)c3c(c2O)C(C(=O)c2ccccc2)N2CCCC32)cc1` (stereo not drawn) [MLS000762485], the IC50 falls from over 80 µM to 11 µM.

Going from `N#CC1C(=N)Oc2cc(Nc3ccccc3)ccc2C1c1ccncc1` (stereo not drawn) [2-amino-7-anilino-4-pyridin-4-yl-4H-1-benzopyran-3-carbonitrile] to `Oc1c2c(c(O)n1-c1ccccn1)C(c1ccccc1)C=CC2c1ccccc1` (stereo not drawn) [4,7-diphenyl-2-pyridin-2-yl-3a,4,7,7a-tetrahydroisoindole-1,3-dione], the IC50 falls from 30.5 µM to 7.9 µM (3.9-fold).

`COc1ccc(C=Nn2c(O)csc2=S)cc1Br` [3-[(E)-(3-bromo-4-methoxyphenyl)methylideneamino]-2-sulfanylidene-4-thiazolidinone] and `CC1=C(C#N)C(=O)NC(=O)C1=NNc1ccc(Br)cc1C(=O)O` [MLS001213177] are within 1.5-fold of each other in IC50: 9.69 µM for the first, 10.6 µM for the second.

Going from `COc1nccnc1NS(=O)(=O)c1ccc(NC(=S)NC(=O)c2ccc(F)cc2)cc1` [4-[3-(4-Fluoro-benzoyl)-thioureido]-N-(3-methoxy-pyrazin-2-yl)-benzenesulfonamide] to `O=C(c1ccccc1)[C@@H]1c2c(c(O)n(-c3ccc(F)cc3)c2O)C2CCCN21` (stereo partly drawn) [MLS000769629], the IC50 falls from 15.4 µM to 7.78 µM (2-fold). The second is the more potent here.

Compared with `CN(C)c1ccc(C=NNC(=O)C(=O)CC2=NC3(CCCC3)Cc3ccccc32)cc1` [MLS000589038], `Nc1ccc2c(c1)C(N=O)c1cc([N+](=O)[O-])ccc1-2` (stereo not drawn) [N-(2-azanyl-7-nitro-fluoren-9-ylidene)hydroxylamine] is 4.2-fold lower in IC50: 13.2 µM for the first, 3.12 µM for the second.

`O=NC1c2cc([N+](=O)[O-])ccc2-c2cc(Cl)c(NC(=O)C(F)(F)F)cc21` (stereo not drawn) [MLS002707326] showed an IC50 of 2.89 µM.
